According to publication PMC4726814, “Molecular Characterization of E-Type Prostanoid Receptor 4 (EP4) from Ayu (Plecoglossus altivelis) and Its Functional Analysis in the Monocytes/Macrophages” (PLoS ONE, 2016):

Biological target: T1, PaEP4L (Plecoglossus altivelis, UniProt A0A142DUN0)
T1 construct: gene EP4; MG1 insect cell membranes
Assay: [3H]-PGE2 saturation binding to MG1 insect cell membranes, Scatchard

T1 sequence (A0A142DUN0 1-459): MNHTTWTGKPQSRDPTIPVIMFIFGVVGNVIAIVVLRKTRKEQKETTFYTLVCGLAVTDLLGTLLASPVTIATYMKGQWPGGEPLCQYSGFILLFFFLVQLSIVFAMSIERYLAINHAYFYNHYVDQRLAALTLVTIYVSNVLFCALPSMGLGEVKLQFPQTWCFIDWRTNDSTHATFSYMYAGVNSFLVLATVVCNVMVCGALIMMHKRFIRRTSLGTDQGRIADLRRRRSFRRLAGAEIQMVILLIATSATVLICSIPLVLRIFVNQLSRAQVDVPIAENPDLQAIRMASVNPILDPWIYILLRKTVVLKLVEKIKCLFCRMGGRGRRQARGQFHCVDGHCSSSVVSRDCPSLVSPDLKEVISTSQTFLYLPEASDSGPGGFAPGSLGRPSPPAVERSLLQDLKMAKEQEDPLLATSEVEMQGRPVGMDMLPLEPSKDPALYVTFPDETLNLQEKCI

Compound: CCCCC[C@H](O)/C=C/[C@H]1[C@H](O)CC(=O)[C@@H]1C/C=C\CCCC(=O)O [PGE2]
- Kd: 120 nM
